Laboratory results taken from US10222368B2 (priority 2012, dated 2019).

Target: T1, mu opiate receptor (MOR) (Rattus norvegicus, UniProt P33535)
T1 construct: from tissue; host or cells: striatal tissue (membrane preparation)
Test: MOR agonist activity using [35S]GTPγS binding assay in striatal membranes
Assay type: biochemical
Settings: for MOR agonist activity, [35S]GTPγS binding, FLNA-binding compound as agonist at 0.1 μM / MOR agonist activity, [35S]GTPγS binding, FLNA-binding compound as agonist at 1 μM: Series C-2; for MOR agonist activity, [35S]GTPγS binding, 1 μM + BFNA: 1 μM compound + 1 μM β-FNA (MOR antagonist)
Description: To assess the mu opiate receptor (MOR) agonist activity of positive compounds from the FLNA screening, compounds were tested in a [^35S]GTPγS binding assay using striatal membranes. […] This assay measures a functional consequence of receptor occupancy at one of the earliest receptor-mediated events. The assay permits for traditional pharmacological parameters of potency, efficacy and antagonist affinity, with the advantage that agonist measures are not subjected to amplification or other modulation that may occur when analyzing parameters further downstream of the receptor.
Thus, striatal tissue was homogenized in 10 volumes of ice cold 25 mM HEPES buffer, pH 7.4, which contained 1 mM EGTA, 100 mM sucrose, 50 μg/ml leupeptin, 0.04 mM PMSF, 2 μg/ml soybean trypsin inhibitor and 0.2% 2-mercaptoethanol. The homogenates were centrifuged at 800×g for 5 minutes and the supernatants were centrifuged at 49,000×g for 20 minutes.
The resultant striatal membrane preparation (200 μg) was admixed and maintained (incubated) at 30° C. for 5 minutes in reaction buffer as above that additionally contained 1 mM MgCl2 and 0.5 nM [^35S]GTPγS (0.1 μCi/assay, PerkinElmer Life and Analytical Sciences) in a total volume of 250 μl and continued for 5 minutes in the absence or presence of 0.1-10 μM of an assayed compound of interest. The reaction was terminated by dilution with 750 μl of ice-cold reaction buffer that contained 20 mM MgCl2 and 1 mM EGTA and immediate centrifugation at 16,000×g for 5 minutes.
Normal rabbit serum (1 μl) was added to 1 ml of lysate and incubated at 25° C. for 30 minutes. Nonspecific immune complexes were removed by incubation with 25 μl of protein A/G-conjugated agarose beads at 25° C. for 30 minutes followed by centrifugation at 5,000×g at 4° C. for 5 minutes. The supernatant was divided and separately incubated at 25° C. for 30 minutes with antibodies raised against Gαo proteins (1:1,000 dilutions).
The immunocomplexes so formed were collected by incubation at 25° C. for 30 minutes with 40 μl of agarose-conjugated protein A/G beads and centrifugation at 5,000×g at 4° C. for 5 minutes. The pellet was washed and suspended in buffer containing 50 mM Tris-HCl, pH 8.0, and 1% NP-40. The radioactivity in the suspension was determined by liquid scintillation spectrometry.

[1] = 0.1 μM compound, striatal membranes
[2] = 1 μM compound, striatal membranes
[3] = 1 μM compound, relative to DAMGO
[4] = 0.1 μM compound, relative to DAMGO
[5] = Series C-1, 1 μM compound + BFNA relative to DAMGO + BFNA
[6] = Series C-1, 0.1 μM compound relative to DAMGO (0.1 μM)

T1 sequence (P33535 whole entry): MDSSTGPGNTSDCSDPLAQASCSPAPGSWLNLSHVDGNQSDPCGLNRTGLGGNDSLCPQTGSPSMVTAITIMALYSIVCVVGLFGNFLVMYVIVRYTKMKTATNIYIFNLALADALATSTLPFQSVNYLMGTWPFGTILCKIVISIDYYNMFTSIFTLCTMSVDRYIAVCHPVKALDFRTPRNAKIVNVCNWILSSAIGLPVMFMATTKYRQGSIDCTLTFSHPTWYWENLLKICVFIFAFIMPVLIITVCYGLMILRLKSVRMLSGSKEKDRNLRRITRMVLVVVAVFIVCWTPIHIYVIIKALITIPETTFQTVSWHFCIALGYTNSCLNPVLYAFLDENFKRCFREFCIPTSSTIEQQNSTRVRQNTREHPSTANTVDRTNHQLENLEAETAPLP

Row | SMILES | MOR agonist activity, [35S]GTPγS binding, FLNA-binding compound as agonist at 0.1 μM [1] [%] | MOR agonist activity, [35S]GTPγS binding, 1 μM + BFNA (striatal membranes) [%] | MOR agonist activity, [35S]GTPγS binding, FLNA-binding compound as agonist at 1 μM [2] [%] | also measured
1 | O=S(=O)(c1ccccc1Oc1ccccc1)N1CCC2(CC1)NCCO2 [Compound C0149M-2] | 209.8 | 93.4 | 406.7 | –
2 | C=CCN1CCC2(CC1)OCCN2S(=O)(=O)c1ccc(C(C)=O)cc1 [Compound C0096M] | 186.4 | 127.1 | 328.9 | % DAMGO (1 μM) [3]: 130.0%
3 | CC(=O)c1ccc(S(=O)(=O)N2CCC3(CC2)OCCN3S(C)(=O)=O)cc1 [Compound C0056] | 98.6 | 86.3 | 193.4 | % DAMGO (0.1 μM) [4]: 68.0%; % DAMGO (1 μM) [3]: 83.0%
4 | O=C1CN(C2CCc3ccccc3C2)C2(CCN(S(=O)(=O)c3ccccc3)CC2)N1 (stereo not shown) [C0136M (P5)] | 176.8 | 74.5 | 237.3 | –
5 | CC(=O)N1CCSC12CCN(S(=O)(=O)c1ccc([N+](=O)[O-])cc1)CC2 [Compound C0050] | 110.3 | 59.0 | 127.6 | –
6 | O=S(=O)(c1ccc(OC(F)(F)F)cc1)N1CCC2(CC1)OCCN2S(=O)(=O)c1ccc(OC(F)(F)F)cc1 [Compound C0006] | – | – | – | % DAMGO + BFNA [5]: 7.2%
7 | CC(=O)c1ccc(C(=O)N2CCC3(CC2)OCCN3C(=O)c2ccc(C(C)=O)cc2)cc1 [Compound C0054] | – | – | – | % DAMGO (0.1 μM) [6]: 47.0%
8 | Cc1cccc(S(=O)(=O)N2CCC3(CC2)OCCN3S(=O)(=O)c2cccc(C)c2)c1 [Compound C0014] | – | – | – | % DAMGO (0.1 μM) [6]: 82.0%
9 | CC(=O)c1ccc(S(=O)(=O)N2CCOC23CCN(CC(=O)O)CC3)cc1 [Compound C0100M] | 173.6 | 195.6 | 245.9 | –
10 | CCCCN1CCC2(CC1)OCCN2S(=O)(=O)c1ccc(OC)cc1 [Compound C0102M] | 131.8 | 150.4 | 272.0 | –
11 | CC(=O)c1ccc(S(=O)(=O)N2CC(CN(C)C)OC23CCN(CC2CC2)CC3)cc1 (stereo not shown) [Compound C0128M] | 197.8 | 63.9 | 286.0 | –
12 | CC(C)c1ccc(S(=O)(=O)N2CCC3(CC2)OCCN3S(=O)(=O)c2ccc(C(C)C)cc2)cc1 [Compound C0007] | – | – | – | % DAMGO (0.1 μM) [6]: 46.0%; % DAMGO + BFNA [5]: 17.0%
13 | CCN1CCC2(CC1)OCCN2S(=O)(=O)c1ccc(OC)cc1 [Compound C0089M] | 234.5 | 81.9 | 295.3 | –
14 | CC(=O)c1ccc(S(=O)(=O)N2CCC3(CC2)NCCS3)cc1 [Compound C0060] | 166.5 | 143.9 | 218.9 | –
15 | CC(=O)c1ccc(S(=O)(=O)N2CCC3(CC2)OCCN3S(=O)(=O)c2ccc(C(C)=O)cc2)cc1 [Compound C0011] | 217.0 | 19.0 | 305.0 | –
16 | N#Cc1ccc(S(=O)(=O)N2CCC3(CC2)OCCN3S(=O)(=O)c2ccc(C#N)cc2)cc1 [Compound C0008] | – | – | – | % DAMGO + BFNA [5]: 4.4%
17 | CC(=O)c1ccc(S(=O)(=O)N2CCOC23CCN(CC2CC2)CC3)cc1 [Compound C0095M] | 189.1 | 107.7 | 224.6 | –

Row | SMILES | MOR agonist activity, [35S]GTPγS binding, FLNA-binding compound as agonist at 0.1 μM [1] [%] | MOR agonist activity, [35S]GTPγS binding, 1 μM + BFNA (striatal membranes) [%] | MOR agonist activity, [35S]GTPγS binding, FLNA-binding compound as agonist at 1 μM [2] [%] | also measured
18 | COc1c2c(cc3c1C(CC(=O)c1ccc(F)c(F)c1)[N+](C)(C)CC3)OCO2 (stereo not shown) [Compound B0003] | – | – | – | % DAMGO + BFNA (Series B, 1 μM compound + BFNA relative to DAMGO + BFNA): 29.0%
19 | CN1CCC2(CC1)OCCN2S(=O)(=O)c1ccc(S(C)(=O)=O)cc1 [Compound C0106M] | 171.8 | 117.2 | 240.7 | –
20 | CCOC(=O)CN1CCC2(CC1)OCCN2S(=O)(=O)c1ccc(C(C)=O)cc1 [Compound C0099M] | 157.2 | 114.7 | 195.7 | % DAMGO (1 μM) [3]: 88.0%
21 | CN1CCC2(CC1)NC(=O)CN2Cc1ccccc1 [Compound C0104M] | 188.2 | 143.8 | 238.9 | –
22 | COc1ccc(S(=O)(=O)N2CCOC23CCNCC3)cc1 [Compound C0027] | 233.2 | 72.2 | 313.9 | –
23 | O=C1CN(Cc2ccccc2)C2(CCN(C3CCCCC3)CC2)N1 [C0137M(P7)] | 180.8 | 55.8 | 193.8 | –
24 | COc1ccc(S(=O)(=O)N2CCOC23CCN(CC2CC2)CC3)cc1 [Compound C0090M] | 237.0 | 41.0 | 341.0 | –
25 | CC(=O)c1ccc(S(=O)(=O)N2CCC3(CC2)NC(=O)CO3)cc1 [Compound C0087M] | 262.8 | 142.5 | 329.6 | % DAMGO (0.1 μM) [4]: 138.9%; % DAMGO + BFNA (1 μM compound + BFNA, relative to DAMGO + BFNA): 293.8%; % DAMGO (1 μM) [3]: 132.8%
26 | COc1ccc(S(=O)(=O)N2CCSC23CCNCC3)cc1 [S-C0027] | 156.2 | 56.2 | 286.8 | –
27 | COc1cccc(CC(=O)CC2c3c(cc4c(c3OC)OCO4)CC[N+]2(C)C)c1OC.[I-] (stereo not shown) [Compound B0038] | – | – | – | MOR agonist activity, [35S]GTPγS binding, at 1 μM compound (Series B, 1 μM compound, [35S]GTPγS binding to Gαo, striatal membranes): 205.3%
28 | CCCCN1CCC2(CC1)OCCN2S(=O)(=O)c1ccc(C(C)=O)cc1 [Compound C0101M] | 138.2 | 174.8 | 274.3 | –
29 | COc1ccc(S(=O)(=O)N2CCC3(CC2)NCCO3)cc1 [Compound C0026] | 207.2 | 21.2 | 288.4 | –
30 | CCc1ccc(S(=O)(=O)N2CCOC23CCN(CC2CC2)CC3)cc1 [Compound C0135M] | 161.3 | 113.3 | 310.1 | –
31 | O=C1CN(Cc2ccccc2)C2(CCNCC2)N1 [Compound C0115M] | 177.2 | 118.4 | 226.8 | –
32 | COc1cccc(S(=O)(=O)N2CCC3(CC2)OCCN3S(=O)(=O)c2cccc(OC)c2)c1 [Compound C0002] | – | – | – | % DAMGO + BFNA [5]: 6.1%
33 | CS(=O)(=O)c1ccc(S(=O)(=O)N2CCOC23CCN(CC2CC2)CC3)cc1 [Compound C0126M] | 181.8 | 108.5 | 265.3 | –
